The text below walks through data of article PMC5651845, “A New Generation of Arachidonic Acid Analogues as Potential Neurological Agent Targeting Cytosolic Phospholipase A2” (Scientific Reports, 2017).

The test system of series [1] is ROS production in BV-2 cells. Briefly: ROS assay (CM-H2DCFDA) in LPS-stimulated BV-2 cells. In kind it is cell-based, murine. The settings on record: 2, 10 and 20 μM, 2 µg/mL LPS, 14 h. The protocol:
CM-H2DCFDA was used as the main detection reagent for ROS for this study. Being a chloromethyl derivative of the conventional H2DCFDA, it is better retained in the cells due to the reaction of its chloromethyl group with intracellular thiol species. In addition, esterase present in the cells would convert the acetate group found in CM-H2DCFDA into carboxylic acid, further retaining it in the cell. To investigate the ROS production by BV-2 cell stimulated with LPS, intracellular ROS was measured 14 h post-stimulation with CM-H2DCFDA fluorescence. A 2-fold increase in ROS was detected as compared to the control. […] This could be because the activation of ROS production might not be solely due to the inflammatory pathway mechanism involving cPLA2. It was reported in previous studies that a multitude of several other processes producing ROS may be at work[51],[52].
20,000 BV-2 cells were seeded into a 96-well plate in 100 uL of culture medium and allowed to grow overnight. When a 90% cell confluency was observed, lipopolysaccharide pre-dissolved in culture medium to achieve a concentration of 2 μg/mL was added to each well of the 96 well. Different concentrations of test compounds in DMSO were added to the LPS containing medium and was then transferred to the cells. […] Fluorescence detection was done by exciting the dye at 485 nm and detection of emission at 525 nm. […]

The target in the next series is T1, recombinant cPLA2 (Homo sapiens, UniProt P47712).
T1 construct: purchased US Biological P4074-03R
T1 sequence (P47712 1-749): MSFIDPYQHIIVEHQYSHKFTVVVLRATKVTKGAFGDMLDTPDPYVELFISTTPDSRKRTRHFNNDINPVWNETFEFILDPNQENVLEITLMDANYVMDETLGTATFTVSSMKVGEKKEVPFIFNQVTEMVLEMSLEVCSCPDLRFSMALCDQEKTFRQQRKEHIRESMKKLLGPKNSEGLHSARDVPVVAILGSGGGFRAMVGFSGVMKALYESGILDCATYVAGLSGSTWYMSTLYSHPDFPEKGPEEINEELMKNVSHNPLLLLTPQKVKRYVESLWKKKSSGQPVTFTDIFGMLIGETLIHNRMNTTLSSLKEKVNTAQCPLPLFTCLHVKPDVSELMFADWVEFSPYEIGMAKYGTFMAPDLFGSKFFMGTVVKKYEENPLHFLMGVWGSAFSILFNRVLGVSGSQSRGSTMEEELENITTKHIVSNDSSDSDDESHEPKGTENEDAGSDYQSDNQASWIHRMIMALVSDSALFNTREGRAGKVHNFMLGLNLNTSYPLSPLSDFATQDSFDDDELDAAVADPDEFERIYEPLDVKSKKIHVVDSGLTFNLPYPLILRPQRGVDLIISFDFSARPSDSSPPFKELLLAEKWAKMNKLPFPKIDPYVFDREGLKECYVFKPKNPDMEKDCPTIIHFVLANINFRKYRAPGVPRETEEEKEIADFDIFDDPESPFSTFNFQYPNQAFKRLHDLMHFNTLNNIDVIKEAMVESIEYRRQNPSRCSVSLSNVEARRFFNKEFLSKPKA
Briefly: EnzChek phospholipase A2 fluorogenic assay (% activity) at 10 μM. In kind it is biochemical. The following applies: 10 μM compound. The protocol: The compounds were evaluated with a fluorogenic PLA2 assay kit (EnzChek® Phospholipase A2 Assay Kit, Catalog No: E10217) at a standard 10 μM concentration. Potential inhibitors were determined by their ability to lower cPLA2 activity to a greater extent than 1a.
The assay was conducted according to the manufacturer’s instruction (E10217, Molecular Probes) with slight modification. Briefly, substrate solution was separately prepared by mixing 5 μL of DOPG, 5 μL of DOPC and 5 μL of substrate respectively in 1.5 mL of 1X phospholipase A2 reaction buffer. The mixture was vortexed vigorously for 3 min before allowing to stand at room temperature for 1 h. 48 μL of 1X phospholipase A2 reaction buffer were added into each well of a 96-wells plate. This was followed by addition of 1 μL of recombinant cPLA2 (P4074-03R, US Biological) and 1 μL of 1 mM of the respective compound dissolved in DMSO. The final concentration of the test compound achieved is 10 μM. The reaction was initiated by adding 50 μL of the substrate solution and incubating at room temperature for 1 h. Fluorescence was measured using a Varioskan plate reader (Thermo Scientific, MA, USA) by exciting at 485 nm, while fluorescence emission was detected at 515 nm. Positive control was performed when 1 μL of test compound was replaced by vehicle DMSO. % activity was expressed as the mean value of duplicate wells from three experiments. % activity was calculated by the following formula1 %activity=fluorescenceoftestedwell−background/fluorescenceofpostivecontrol−background

For the next series, the system named is BV-2 cells. Briefly: MTS cell proliferation assay on BV-2 cells. In kind it is cell-based, murine. The settings on record: 10 μM, 48 h and 72 h, vs vehicle control. The procedure: To explore whether the inhibitors are cytotoxic, MTS assay were conducted on BV-2 cells, a murine microglial cell line derived from post-natal mouse cerebella, and HEK293T cells that are derived from human embryonic kidney. Both cell types were treated with 10 μM of 1a, 2g and 2i for 48 h and 72 h (Fig. 3A,B). Dimethyl sulfoxide (DMSO) vehicle control was also included as the compounds were dissolved in DMSO.
Cells were plated on a 96-wells plate and grown for 24 h to a density of 8000 cells per well for both HEK293T and BV-2 cells. Cells were cultured at 37 °C under a 5% CO2 environment in 100 μL of culture medium. Thereafter, the compound of interest dissolved in culture medium at a concentration of 10 μM was replaced into each well. DMSO was added as vehicle in the control group. 3 biological replicates were performed. The plates were then incubated at 37 °C with 5% CO2 for 48 h and 72 h. At each individual time point, 20 μL of CellTiter 96® AQueous One Solution (MTS reagent) was added into each well and re-incubated at 37 °C with 5% CO2 without light for 3 h. Colorimetric readings were taken using a Varioskan plate reader at 490 nm and analyzed. Three independent biological repeats with four technical replicates were performed.
(In general: Tetrazolium assays rely on reduction of a dye to a coloured formazan, in cell work by metabolically active cells.)

Broadly, the inhibition is the relative decrease from the control value, in per cent. By remaining activity is commonly meant the share of the control activity or signal that is left under treatment. As to `CCCCC/C=C\C/C=C\C/C=C\C/C=C\CCCCC(=O)Nc1cccc(C(=O)O)c1` [2i], the “ROS level, concentration dependence” value in series [1] is given as “dose-dependent decrease in ROS”. At recombinant cPLA2, the inhibition at 10 µM turned out to be 88.5%. On recombinant cPLA2 (1 h, room temperature), the remaining activity at 10 µM amounted to 11.5 ± 1%. The “cytotoxicity (MTS) on BV-2 cells” value with BV-2 cells is “no significant toxic effects”.
